Experimental data taken from publication PMC2935147 (Journal of medicinal chemistry, 2010).
Counter-ions that a name gives are not always drawn. Like-named read-outs stand apart in the source and are kept apart here.

Columns and labels:
human P2Y6 receptor [1] = target: T1, human P2Y6 receptor (Homo sapiens, UniProt Q15077); test: PLC activation; type: cell-based; conditions: for Pharmacological properties at hP2Y6 receptor: summary in words, Table 4; for activity at the P2Y6 receptor: 1321N1 cells
T1 sequence (Q15077 whole entry): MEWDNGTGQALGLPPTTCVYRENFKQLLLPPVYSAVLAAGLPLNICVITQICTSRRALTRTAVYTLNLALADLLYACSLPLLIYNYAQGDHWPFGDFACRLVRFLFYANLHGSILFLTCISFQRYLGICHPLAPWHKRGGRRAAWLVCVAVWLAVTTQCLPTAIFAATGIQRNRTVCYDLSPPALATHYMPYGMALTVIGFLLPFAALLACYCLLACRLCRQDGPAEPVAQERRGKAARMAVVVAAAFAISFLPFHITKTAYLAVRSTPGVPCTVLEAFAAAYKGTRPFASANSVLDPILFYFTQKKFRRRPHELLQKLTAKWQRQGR

human P2Y6 receptor [2] = target: T1, human P2Y6 receptor; conditions: cited from earlier work
human P2Y6 receptor [3] = target: T1, human P2Y6 receptor; type: cell-based
human P2Y4 receptor = human P2Y4 receptor (Homo sapiens, UniProt P51582); conditions: read-out: EC50 hP2Y4; ref Kim et al.[26]; cited from earlier work
Sequence of human P2Y4 receptor (P51582 whole entry): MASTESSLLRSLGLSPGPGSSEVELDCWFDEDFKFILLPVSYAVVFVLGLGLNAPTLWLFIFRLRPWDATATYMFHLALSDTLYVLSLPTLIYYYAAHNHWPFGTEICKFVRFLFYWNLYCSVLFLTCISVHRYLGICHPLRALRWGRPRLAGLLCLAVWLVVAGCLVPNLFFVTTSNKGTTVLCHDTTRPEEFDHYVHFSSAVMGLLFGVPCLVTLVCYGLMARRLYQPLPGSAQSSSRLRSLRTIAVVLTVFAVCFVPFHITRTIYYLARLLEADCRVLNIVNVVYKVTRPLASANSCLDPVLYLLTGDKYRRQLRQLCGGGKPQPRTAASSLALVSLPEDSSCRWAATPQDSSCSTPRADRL

human P2Y2 receptor [4] = target: T2, human P2Y2 receptor (Homo sapiens, UniProt P41231); conditions: read-out: EC50 hP2Y2; ref Kim et al.[26]; cited from earlier work
T2 sequence (P41231 whole entry): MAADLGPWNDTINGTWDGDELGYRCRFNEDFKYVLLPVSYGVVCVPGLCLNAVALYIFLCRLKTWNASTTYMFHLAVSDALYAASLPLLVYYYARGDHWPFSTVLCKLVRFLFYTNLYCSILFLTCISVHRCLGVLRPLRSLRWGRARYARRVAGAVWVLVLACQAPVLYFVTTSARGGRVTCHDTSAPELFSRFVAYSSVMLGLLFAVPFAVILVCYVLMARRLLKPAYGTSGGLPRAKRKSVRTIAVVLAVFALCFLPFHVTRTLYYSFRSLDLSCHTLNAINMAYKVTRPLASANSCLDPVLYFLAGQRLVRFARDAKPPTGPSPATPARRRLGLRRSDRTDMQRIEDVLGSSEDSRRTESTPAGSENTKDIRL

[5] = Stability in acidic aqueous solution; type: physicochemical; conditions: HCl buffer (pH 1.2)
human P2Y2 receptor [6] = target: T2, human P2Y2 receptor; test: PLC activation; type: cell-based
human P2Y14 receptor = conditions: read-out: EC50 at the P2Y14 receptor; cited from earlier work
[7] = ratio of EC50 values, PLC activation

Compound: CCN(CC)CC.CO/N=c1\ccn([C@@H]2O[C@H](COP(=O)(O)OP(=O)(O)OP(=O)(O)O)[C@@H](O)[C@H]2O)c(=O)[nH]1 [Compound 20, N^4-Methoxycytidine-5′-triphosphate ammonium salt]
- gain of potency at the P2Y6 receptor over UTP 17 (human P2Y6 receptor [1]; ratio of EC50 values): > 100 fold

Compound: CCN(CC)CC.O=c1ccn([C@@H]2O[C@H](COP(=O)(O)OP(=O)(O)OP(=O)(O)Oc3ccccc3)[C@@H](O)[C@H]2O)c(=O)[nH]1 [Compound 26, P^1-Uridine-5′-P^3-phenyl-triphosphate triethylammonium salt]
- Pharmacological properties at hP2Y6 receptor (human P2Y6 receptor [1]): weak agonist, selective

Compound: O=c1ccn([C@H]2[C@H](O)[C@H](O)[C@@]3(COP(=O)(O)OP(=O)(O)O)C[C@H]23)c(=O)[nH]1 [Compound 8, (N)-methanocarba UDP]
- activity at the P2Y6 receptor (human P2Y6 receptor [2]; previously found): inactive

Compound: CCN(CC)CC.CO/N=c1/ccn([C@@H]2O[C@H](COP(=O)(O)OP(=O)(O)OP(=O)(O)OC[C@H]3O[C@@H](n4ccc(=O)[nH]c4=O)[C@H](O)[C@@H]3O)[C@@H](O)[C@H]2O)c(=O)[nH]1 [Compound 23, N^4-methoxy-Cp3U]
- EC50 (human P2Y6 receptor [3]): 83 nM
- enhancement of P2Y6 receptor potency relative to Up3U 21 (human P2Y6 receptor [1]; ratio of EC50 values): 22 fold
- Pharmacological properties at hP2Y6 receptor (human P2Y6 receptor [1]): selective, potent agonist

Compound: O=c1ccn(C2C(O)C(O)C3(COP(=O)(O)OP(=O)(O)OP(=O)(O)O)CC23)c(=O)[nH]1 (stereo not drawn) [Compound 19, (N)-methanocarba UTP]
- EC50 (human P2Y4 receptor): 85 ± 5 nM
- EC50 (human P2Y6 receptor [2]; read-out: EC50 hP2Y6, NE = no effect at 10 μM, ref Kim et al.[26]): > 10000 nM
- EC50 (human P2Y2 receptor [4]): 16 ± 7 nM

Compound: O=c1ccn([C@@H]2O[C@H](COP(=O)(O)OP(=O)(O)OP(=O)(O)OC[C@H]3O[C@@H](n4ccc(=O)[nH]c4=O)[C@H](O)[C@@H]3O)[C@@H](O)[C@H]2O)c(=O)[nH]1 [Compound 21, Up3U]
- half-life at 0.2 mg/mL [5]: 218 h
- EC50 (human P2Y6 receptor [3]): 370 nM
- Pharmacological properties at hP2Y6 receptor (human P2Y6 receptor [1]): moderately potent agonist, only 4-5 fold selective

Compound: CCN(CC)CC.O=c1ccn([C@@H]2O[C@H](COP(=O)(O)CP(=O)(O)OP(=O)(O)O[C@H]3O[C@H](CO)[C@@H](O)[C@H](O)[C@H]3O)[C@@H](O)[C@H]2O)c(=O)[nH]1 [Compound 31, Uridine-5′-glucose-1′-α,β-methylenetriphosphate triethylammonium salt]
- activity at the P2Y6 receptor (human P2Y6 receptor [1]; PLC activation): only weakly active
- Pharmacological properties at hP2Y6 receptor (human P2Y6 receptor [1]): ~inactive

Compound: CONc1ccn([C@@H]2O[C@H](COP(=O)(O)OP(=O)(O)OP(=O)(O)OC[C@H]3O[C@@H](n4ccc(NOC)nc4=O)[C@H](O)[C@@H]3O)[C@@H](O)[C@H]2O)c(=O)n1 [Compound 24, N^4-OMe-Cp3(N^4-OMe)C]
- EC50 (human P2Y6 receptor [3]): 630 nM

Compound: CCN(CC)CC.CO/N=c1/ccn([C@@H]2O[C@H](COP(=O)(O)OP(=O)(O)OP(=O)(O)Oc3ccccc3)[C@@H](O)[C@H]2O)c(=O)[nH]1 [Compound 33, N^4-Methoxycytidine-5′-phenyl-triphosphate triethylammonium salt]
- activity at the P2Y6 receptor (human P2Y6 receptor [1]; PLC activation): weakly activated

Compound: CCN(CC)CC.O=c1ccn([C@@H]2O[C@H](COP(=O)(O)OP(=O)(O)OP(=O)(O)O[C@H]3O[C@H](CO)[C@@H](O)[C@H](O)[C@H]3O)[C@@H](O)[C@H]2O)c(=O)[nH]1 [Compound 27, P^1-Uridine-5′-P^3-[1]glucose-1′-triphosphate triethylammonium salt]
- activity at the P2Y6 receptor (human P2Y6 receptor [1]; PLC activation): only weakly activated
- activity at the P2Y6 receptor (human P2Y6 receptor [1]; PLC activation, listed as UTP-glucose): inactive
- Pharmacological properties at hP2Y6 receptor (human P2Y6 receptor [1]): ~inactive

Compound: CCN(CC)CC.O=c1ccn([C@@H]2O[C@H](COP(=O)(O)OP(=O)(O)OP(=O)(O)OC3CCCCC3)[C@@H](O)[C@H]2O)c(=O)[nH]1 [Compound 25, P^1-Uridine-5′-P^3-cyclohexyl-triphosphate triethylammonium salt]
- Pharmacological properties at hP2Y6 receptor (human P2Y6 receptor [1]): weak agonist, nonselective vs. P2Y2 receptor

Compound: CC(C)(C)O/N=c1/ccn([C@@H]2O[C@H](COP(=O)(O)OP(=O)(O)O)[C@@H](O)[C@H]2O)c(=O)[nH]1 [Compound 14, N^4-t-Butyloxycytidine-5′-diphosphate ammonium salt]
- EC50 (human P2Y6 receptor [1]): 2550 ± 700 nM

Compound: O=c1ccn([C@@H]2O[C@H](COP(=O)(O)OP(=O)(O)OP(=O)(O)O)[C@@H](O)[C@H]2O)c(=O)[nH]1 [Compound 17, uridine-5′-triphosphate, reference compound]
- Pharmacological properties at hP2Y6 receptor (human P2Y6 receptor [1]): ~inactive

Compound: CCN(CC)CC.O=C(Cn1c(=O)ccn([C@@H]2O[C@H](COP(=O)(O)OP(=O)(O)OP(=O)(O)O[C@H]3O[C@H](CO)[C@@H](O)[C@H](O)[C@H]3O)[C@@H](O)[C@H]2O)c1=O)c1ccccc1 [Compound 30, 3-Phenacyluridine-5′-glucose-1′-triphosphate triethylammonium salt]
- activity at the P2Y6 receptor (human P2Y6 receptor [1]; PLC activation): only weakly active

Compound: CCN(CC)CC.CO/N=c1/ccn([C@@H]2O[C@H](COP(=O)(O)OP(=O)(O)O)[C@@H](O)[C@H]2O)c(=O)[nH]1 [Compound 12, N^4-Methoxycytidine-5′-diphosphate ammonium salt]
- selectivity P2Y6 versus P2Y14 receptor (human P2Y6 receptor [1]; PLC via P2Y6 versus inhibition of cyclic AMP accumulation in HEK-293 cells expressing hP2Y14): 47 fold
- gain of potency at the P2Y6 receptor over UDP 1 (human P2Y6 receptor [1]; ratio of EC50 values): 4 fold
- selectivity P2Y6 versus P2Y2 receptor (human P2Y6 receptor [1]; [7]): 51 fold
- Pharmacological properties at hP2Y6 receptor (human P2Y6 receptor [1]): selective, potent agonist

Compound: O=c1[nH]c(=O)n([C@@H]2O[C@H](COP(=O)(O)OP(=O)(O)O)[C@@H](O)[C@H]2O)cc1I [Compound 3, 5-iodo-UDP]
- EC50 (human P2Y6 receptor [3]): 50 nM

Compound: CCN(CC)CC.CO/N=c1/ccn([C@@H]2O[C@H](COP(=O)(O)OP(=O)(O)OP(=O)(O)O[C@H]3O[C@H](CO)[C@@H](O)[C@H](O)[C@H]3O)[C@@H](O)[C@H]2O)c(=O)[nH]1 [Compound 32, N^4-Methoxycytidine-5′-glucose-1′-triphosphate triethylammonium salt]
- selectivity P2Y6 versus P2Y2 receptor (human P2Y6 receptor [1]; [7]): > 100 fold
- selectivity P2Y6 versus P2Y4 receptor (human P2Y6 receptor [1]; [7]): > 100 fold

Compound: CCN(CC)CC.O=c1ccn([C@@]23C[C@H]2[C@@H]2COP(=O)(O)OP(=O)(O)O[C@H]2[C@H]3O)c(=O)[nH]1 [Compound 9, (S)-Methanocarba-uridine-3′, 5′-cyclic diphosphate triethylammonium salt]
- activity at the P2Y6 receptor (human P2Y6 receptor [1]; PLC activation): inactive

Compound: CCN(CC)CC.O=c1ccn([C@@H]2O[C@H](COP(=O)(O)CP(=O)(O)OP(=O)(O)OC[C@H]3O[C@@H](n4ccc(=O)[nH]c4=O)[C@H](O)[C@@H]3O)[C@@H](O)[C@H]2O)c(=O)[nH]1 [Compound 22, P^1,P^3-Di(uridine-5′-)α,β-methylenetriphosphate triethylammonium salt]
- reduction of P2Y6 receptor potency relative to Up3U 21 (human P2Y6 receptor [1]; ratio of EC50 values): 5 fold
- Pharmacological properties at hP2Y6 receptor (human P2Y6 receptor [1]): weak agonist, selective

Compound: CO/N=c1/ccn([C@@H]2O[C@H](COP(=O)(O)CP(=O)(O)O)[C@@H](O)[C@H]2O)c(=O)[nH]1 [Compound 16, N^4-Methoxycytidine-5′-α,β-methylenediphosphate triethylammonium salt]
- EC50 (human P2Y6 receptor [1]): 678 ± 18 nM
- EC50 (human P2Y2 receptor [6]): > 10000 nM

Compound: Nc1ccn([C@@H]2O[C@H](COP(=O)(O)OP(=O)(O)O)[C@@H](O)[C@H]2O)c(=O)n1 [CDP]
- EC50 (human P2Y14 receptor): > 10000 nM
- activity at the human P2Y6 receptor (human P2Y6 receptor [2]): nearly inactive

Compound: CCN(CC)CC.O=c1[nH]/c(=N\OCc2ccccc2)ccn1[C@@H]1O[C@H](COP(=O)(O)OP(=O)(O)O)[C@@H](O)[C@H]1O [Compound 15, N^4-Benzyloxycytidine-5′-diphosphate ammonium salt]
- Pharmacological properties at hP2Y6 receptor (human P2Y6 receptor [1]): selective, potent agonist

Compound: O=c1ccn([C@@H]2O[C@H](COP(=O)(O)OP(=O)(O)O)[C@@H](O)[C@H]2O)c(=O)[nH]1 [Compound 1, uridine-5′-diphosphate]
- EC50 (human P2Y6 receptor [3]): 200 nM

Compound: N.O=c1ccn([C@@]23C[C@H]2[C@H](COP(=O)(O)OP(=O)(O)O)[C@@H](O)[C@H]3O)c(=O)[nH]1 [Compound 7, (S)-Methanocarba-uridine-5′-diphosphate triethylammonium salt]
- gain of potency at the P2Y6 receptor over (S)-methanocarba-2′-deoxy-UDP 6 (human P2Y6 receptor [1]; ratio of EC50 values): 5 fold
- gain of potency at the P2Y6 receptor over UDP 1 (human P2Y6 receptor [1]; ratio of EC50 values): 7 fold

Compound: CCO/N=c1/ccn([C@@H]2O[C@H](COP(=O)(O)OP(=O)(O)O)[C@@H](O)[C@H]2O)c(=O)[nH]1 [Compound 13, N^4-Ethoxycytidine-5′-diphosphate ammonium salt]
- EC50 (human P2Y6 receptor [1]): 104 ± 23 nM
